In brackets after ≈: the same amount, converted by molar mass.
Tests used:
Klebsiella pneumoniae = test: Antibacterial activity against Klebsiella pneumoniae ATCC 15490 after 24 hrs by twofold serial dilution method; type: functional
Bacillus subtilis = test: Antibacterial activity against Bacillus subtilis ATCC 451 after 24 hrs by twofold serial dilution method; type: functional
Salmonella typhi = test: Antibacterial activity against Salmonella typhi ATCC 24915 after 24 hrs by twofold serial dilution method; type: functional, Salmonella enterica subsp. enterica serovar Typhi
Candida albicans = test: Antifungal activity against Candida albicans after 24 hrs by twofold serial dilution method; type: functional
Escherichia coli = test: Antibacterial activity against Escherichia coli ATCC 25835 after 24 hrs by twofold serial dilution method; type: functional
Aspergillus niger = test: Antifungal activity against Aspergillus niger after 72 to 96 hrs by twofold serial dilution method; type: functional
Staphylococcus aureus = test: Antibacterial activity against Staphylococcus aureus ATCC 25825 after 24 hrs by twofold serial dilution method; type: functional
Pseudomonas aeruginosa = test: Antibacterial activity against Pseudomonas aeruginosa ATCC 10145 after 24 hrs by twofold serial dilution method; type: functional
Cryptococcus neoformans = test: Antifungal activity against Cryptococcus neoformans after 72 to 96 hrs by twofold serial dilution method; type: functional

COc1ccc([C@H]2O[C@@H](c3ccc(OC)cc3)[C@H](C)/C(=N/NC(=S)Nc3ccccc3)[C@H]2C)cc1
-logMIC (Klebsiella pneumoniae): 4.602 | MIC (Klebsiella pneumoniae; Klebsiella pneumoniae, ATCC 15490, 24 h): 25 µg/mL (≈ 51.1 µM) | -logMIC (Bacillus subtilis): 4.903 | MIC (Bacillus subtilis; Bacillus subtilis, ATCC 451, 24 h): 12.5 µg/mL (≈ 25.5 µM) | -logMIC (Salmonella typhi): 4 | MIC (Salmonella typhi; Salmonella enterica, ATCC 24915, 24 h): 100 µg/mL (≈ 204 µM) | -logMIC (Candida albicans): 5.204 | MIC (Candida albicans; Candida albicans, 24 h): 6.25 µg/mL (≈ 12.8 µM) | -logMIC (Escherichia coli): 4.602 | MIC (Escherichia coli; Escherichia coli, ATCC 25835, 24 h): 25 µg/mL (≈ 51.1 µM) | -logMIC (Aspergillus niger): 4.602 | MIC (Aspergillus niger; Aspergillus niger): 25 µg/mL (≈ 51.1 µM) | -logMIC (Staphylococcus aureus): 4.903 | MIC (Staphylococcus aureus; Staphylococcus aureus, ATCC 25825, 24 h): 12.5 µg/mL (≈ 25.5 µM) | -logMIC (Pseudomonas aeruginosa): 4.602 | MIC (Pseudomonas aeruginosa; Pseudomonas aeruginosa, ATCC 10145, 24 h): 25 µg/mL (≈ 51.1 µM) | -logMIC (Cryptococcus neoformans): 3.698 | MIC (Cryptococcus neoformans; Cryptococcus neoformans): 200 µg/mL (≈ 408 µM)

— ChEMBL document CHEMBL1759834, “Synthesis, stereochemistry, antimicrobial evaluation and QSAR studies of 2,6-diaryltetrahydropyran-4-one thiosemicarbazones” (2011)
